# Results from patent US11820762B2, “Compounds as potential therapeutic agents targeting various neurodegenerative diseases” (The Hong Kong University of Science and Technology, priority 2020, dated 2023).
# Entries after “also recorded” stand apart in the source; their conditions may differ.
# Tests used:
# [1] = test system: DNA (G4C2)4 (SEQ ID NO: 5) G4; assay: 1D 1H-NMR titration of DNA (G4C2)4 G4; format: binding; conditions: for binding affinity order according to NMR titration: DNA (G4C2)4 G-quadruplex and hnRNP H, FIGS. 3C-3E; for binding to DNA (G4C2)4 G4 by NMR titration: G4:compound ratio 1:1 to 1:10
# Method: Single […] were purchased from Integrated DNA Technologies (IDT) and Takara. Single-strand DNA/RNA sample at 100 μM was then annealed by heating up to 95° C. for 15 mins, and slowly cooled to room temperature in the annealing buffer (70 mM KCl, 20 mM potassium phosphate (pH 7.0)) for overnight. The final NMR samples contained 0.1 mM DNA or RNA in 70 mM KCl and 20 mM potassium phosphate buffer (pH 7.0).
# The 1D ^1H-NMR spectra were performed at 25° C. All compounds were dissolved in isotope-labeled d6-DMSO (Sigma-Aldrich) at about 50 mM concentration, working as stock solutions. To avoid chemical shift changes of DNA/RNA G4 resulted from d6-DMSO addition, […] d6-DMSO was added into 500 μL of 0.1 mM DNA/RNA G4 solution in the NMR buffer (20 mM potassium phosphate buffer and 70 mM KCl, pH 7.0, 10% D2O) and then 1D ^1H-NMR spectrum was recorded as a reference. During NMR titration experiments of adding each compound into the DNA/RNA G4 solution, the maximal volume of 10 μL of each compound in d6-DMSO solution was regarded as a final data point.
# We next confirmed the binding of cA and DNA (G4C2)4 (SEQ ID NO: 5) G4 by NMR titration experiments.
# RRM domain of hnRNP H = target: T1, RRM domain of hnRNP H (Homo sapiens, UniProt P31943); assay: 1H-15N HSQC NMR titration of hnRNP H RRM domain; format: binding; conditions: ratios 1:5 and 1:10
# T1 construct: HSQC spectra of RRM1/2 of hnRNP H; hexahistidine (cleaved yes); made in house; host or cells: Escherichia coli BL21(DE3), pET-28a(+)
# T1 sequence (P31943 1-194 limits assumed): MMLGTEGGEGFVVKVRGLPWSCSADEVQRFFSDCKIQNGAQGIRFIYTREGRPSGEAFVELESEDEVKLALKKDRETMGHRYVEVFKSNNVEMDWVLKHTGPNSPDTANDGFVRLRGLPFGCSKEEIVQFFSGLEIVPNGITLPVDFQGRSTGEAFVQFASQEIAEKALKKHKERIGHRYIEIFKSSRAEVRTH
# Method: The coding sequence of the RRM domain of hnRNP H/F, or human Orc6 was inserted into the expression vector pET-28a(+) (Novagen). Protein was expressed in Escherichia coli BL21(DE3) at 37° C. for 5 hours. Cell lysates were subject to affinity purification with nickel-nitrilotriacetic acid resin (Qiagen) followed by cleavage of hexahistidine tag with Protease 3C enzyme. Products were further purified on a Superdex 75 column (GE Healthcare). For NMR studies, uniformly ^15N labeled protein was expressed and purified as described above, except for cells grown in M9 medium containing 100% ^15N enriched ammonium chloride (Cambridge Isotopes) and d-glucose.
# Titration experiments were performed by recording a series of 2D ^15N-HSQC spectra on uniformly ^15N-labeled RRM domain (˜0.1 mM) in the presence of different amounts of DNA/RNA or compounds at 25° C. Protein samples and stock solutions of DNA/RNA were all prepared in 20 mM potassium phosphate buffer and 70 mM KCl, pH 7.0, 10% D2O. All compounds were dissolved in isotope-labeled d6-DMSO (Sigma-Aldrich) at about 50 mM concentration, working as stock solutions. To avoid chemical shift changes of protein samples resulted from d6-DMSO addition, 10 μL d6-DMSO was added into 500 μL of 0.1 mM protein solution in the NMR buffer (20 mM potassium phosphate buffer and 70 mM KCl, pH 7.0, 10% D2O) and then the 2D HSQC was recorded as a reference.
# In this scenario, specific RNA-binding proteins (RBPs), like hnRNP H, are recruited by the RNA foci, resulting in RNA processing impairment and further cytotoxicity to the central nervous system^30,36,37. Therefore, we tested the binding possibility of cA with the RRM domain of hnRNP H by NMR titration. […] Intriguingly, the DNA (G4C2)4 (SEQ ID NO: 5) G4 was also shown a potent binding affinity to the RRM domain of hnRNP H (FIG. 4C).
# red blood cells = assay: Hemolysis assay; format: cell-based; conditions: 250, 500, 1000 μg/mL; 2% rabbit red blood cells; 37° C., 1 hour
# Method: Hemolytic activity was determined with 2% fresh red blood cells from a healthy rabbit. Blood cells were obtained and washed with PBS buffer four to five times and centrifuged at 1500 rpm for 10 mins until the upper phase became clear. Compounds were diluted with PBS to final concentrations of 1000, 500, 250 μg/mL, added to the same volume of 2% red blood cells and incubated at 37° C. for 1 hour. Samples were centrifuged at 10,000 rpm for 5 mins, and supernatants were added into 96-well plates and measured at 570 nm with a Thermo Scientific Multiskan FC multiplate photometer (Thermo Scientific™, USA). An aliquot of 10% Triton X-100 was used as the positive control, and 1% DMSO dissolved in PBS was used as the negative control.
# Tau-R3 fibrils = target: T2, Tau-R3 fibrils (Homo sapiens, UniProt P10636); assay: TEM imaging of Tau-R3 fibrils; format: biochemical; conditions: cA 10 μg/ml, cB 5 μg/ml, cC 10 μg/ml
# T2 construct: Tau-R3 protein was synthesized and purchased from ChinaPeptides Co., Ltd; purchased ChinaPeptides Co., Ltd; host or cells: chemical synthesis
# T2 sequence (P10636 623-653 limits assumed): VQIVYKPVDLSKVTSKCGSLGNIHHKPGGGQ
# Method: Samples from ThT fluorescence experiments were directly applied to a 300-mesh carbon coating copper grid. 20 μL of aggregate samples were dispensed onto a sheet of parafilm, and a copper grid was placed onto the sample drop for 5 mins. The copper grid with samples was moved to water drop for 5 mins-washing, and then stained with 2% uranyl acetate for 5 mins. Images were captured using a transmission electron microscope (Thermo Scientific Talos L120C) at a magnification of 13500× and an acceleration voltage of 120 kV.
# In the C9orf72 ALS/FTD, there is a strong genetic association between the microtubule-binding protein, tau and the G4C2 HRE. […] The co-expression of Tau and G4C2 repeats produces a synergistic deterioration of the neurodegeneration phenotype of ALS/FTD^46. Considering the tight correlation of Tau aggregation with the ALS/FTD pathogenesis, we tested our compounds in a non-cell-based Tau-R3 aggregation inhibition assay. […] Moreover, we conducted high magnification TEM imaging to characterize the morphological changes of Tau-R3 fibrils with cA, cB and cC treatments. […] Furthermore, the misfolding of tau protein into filaments in neurons of the central nervous system can be found in various neurodegenerative diseases, such as Alzheimer's disease et al. Therefore, the inhibition on tau aggregation represented a potential of cA and its derivatives in targeting multiple other neurodegenerative diseases more than ALS.
SMILES,binding affinity order according to NMR titration [1],binding to DNA (G4C2)4 G4 by NMR titration [1],binding to RRM domain of hnRNP H by NMR titration (RRM domain of hnRNP H),hemolytic activity (red blood cells),morphological change of Tau-R3 fibrils (TEM) (Tau-R3 fibrils)
"CC(=O)Cc1cc2c(c(O)c1C(=O)O)-c1c(c(O)c3oc4c(O[C@@H]5O[C@H](C(=O)O)[C@@H](O)[C@H](O)[C@H]5O)cccc4c(=O)c3c1O)CC2 [cC, chrexanthomycin C]",cC>cA>cB>cF,proved to bind,a little bit stronger than cA,no hemolytic activity even at the concentration of 1000 μg/ml; also recorded: no hemolytic activity with a pretty high concentration of 1 mg/ml,broken into shorter and thinner fragments
"COc1c2c(c(O)c3c(=O)c4cccc(O[C@@H]5OC(C(=O)O)=C[C@H](O)[C@H]5O)c4oc13)-c1c(cc(CC(C)=O)c(C(=O)O)c1O)CC2 [cB, chrexanthomycin B]",cC>cA>cB>cF,proved to bind,much weaker bindings,significant hemolytic activity starting at 500 μg/ml; also recorded: significant hemolytic activity starting at 0.5 mg/ml,broken into shorter and thinner fragments
"CC(=O)Cc1cc2c(c(O)c1C(=O)O)-c1c(c(O)c3oc4c(O[C@@H]5OC(C(=O)O)=C[C@H](O)[C@H]5O)cccc4c(=O)c3c1O)CC2 [cA, chrexanthomycin A]",cC>cA>cB>cF,apparent chemical shift changes,bound to the RRM domain of hnRNP H,no hemolytic activity even at the concentration of 1000 μg/ml; also recorded: no hemolytic activity with a pretty high concentration of 1 mg/ml,broken into shorter and thinner fragments
